Assay results published in patent US20230183758A1, “METHOD FOR PREPARING DIACYLGLYCEROL BY IMMOBILIZED SN-2 LIPASE” (Shandong Academy of Agricultural Sciences, priority 2021, published 2023).
“Also recorded” adds a separate entry of the source.

Molecular target: immobilized enzyme CAL-A and free enzyme CAL-A (Moesziomyces aphidis, UniProt W3VKA4)
Experiment: Influence of organic solvents, metal ions and surfactants on enzyme activity
Type: biochemical, Candida antarctica
Details: for effect of organic solvent on hydrolysis activity: 10% (v/v) and 20% (v/v) solvent
Text: Add 10 mmol/L, 5 mmol/L, l0 mmol/L K+, Al^3+, Fe^2+, Fe3+, Ca^2+, Mg^2+, Mn^2+, Zn^2+, Ba^2+, Na^2+ and other 10 kinds of metal ion solutions to measure the enzyme activity respectively, take the activity of the untreated immobilized enzyme CAL-A and free enzyme CAL-A enzyme as 100%, analyze the influence of metal ions on the enzyme activity. (FIG. 4-G, FIG. 4-H, FIG. 4-I).
Add 10% (v/v) and 20% (v/v) methanol, ethanol, acetonitrile, acetone, n-butanol, isooctane, isopropanol, n-hexane, n-heptane, petroleum ether, tert-butyl Alcohol, glacial acetic acid, ethyl acetate and other 13 kinds of organic solvent solutions respectively, measure the enzyme activity. Take the untreated immobilized enzyme CAL-A and free enzyme CAL-A enzyme activity as 100%, analyze the influence of organic solvent on the enzyme activity.
Add 0.0001%, 0.0005%, 0.001% SDS, TritionX-100, Tween-80, Tween-20, EDTA and other 5 kinds of surfactant solutions respectively, measure the enzyme activity, take the untreated immobilized enzyme CAL-A and free enzyme CAL-A enzyme activity as 100%, analyze the influence of surfactant on enzyme activity.

Chain of immobilized enzyme CAL-A and free enzyme CAL-A (W3VKA4 22-462): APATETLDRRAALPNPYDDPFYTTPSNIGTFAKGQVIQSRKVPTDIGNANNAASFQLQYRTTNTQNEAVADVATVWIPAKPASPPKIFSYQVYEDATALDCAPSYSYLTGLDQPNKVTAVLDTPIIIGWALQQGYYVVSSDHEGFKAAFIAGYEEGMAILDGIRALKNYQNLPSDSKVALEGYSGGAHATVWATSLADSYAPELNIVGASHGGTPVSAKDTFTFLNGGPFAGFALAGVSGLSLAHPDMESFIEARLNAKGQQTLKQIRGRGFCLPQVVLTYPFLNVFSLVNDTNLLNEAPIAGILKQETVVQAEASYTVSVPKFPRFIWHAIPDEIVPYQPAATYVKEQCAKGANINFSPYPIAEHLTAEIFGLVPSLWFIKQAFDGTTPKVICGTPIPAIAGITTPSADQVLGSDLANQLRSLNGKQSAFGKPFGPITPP

Compound | effect of organic solvent on hydrolysis activity (untreated enzyme = 100%) | further results
O=C(O)CN(CCN(CC(=O)O)CC(=O)O)CC(=O)O [EDTA] | – | effect of surfactant on lipase activity (0.0005% EDTA): activating effect; also recorded: activate; effect of surfactant on lipase activity (0.001% EDTA): inhibitory effect; also recorded: inhibit
O=S(=O)([O-])[O-].[Fe+2] [Fe^2+] | – | effect of metal ion on hydrolysis of immobilized enzymes (metal ion solutions 1, 5, 10 mmol/L, untreated enzyme = 100%): activate
CC(=O)O [acetic acid] | significantly inhibit; also recorded: obvious inhibitory effects | –
CCO [ethanol] | significantly inhibit; also recorded: obvious inhibitory effects | –
CCOC(C)=O [ethyl acetate] | activate; also recorded: activation effects | –
CCCCCC [n-hexane] | significantly inhibit; also recorded: obvious inhibitory effects | –
CC(C)(C)O [tert-butanol] | activate; also recorded: activation effects | –
n-butanol | activate; also recorded: activation effects | –
